# Measured values: patent US20140288061A1, “INSECTICIDE COMPOSITIONS AND PROCESS” (priority 2004, published 2014)
# Test system: German cockroaches
# Details: for LC50 (%) [95% CI]: 2 μl per insect, evaluated after 24 hours, alone or with 10% solution (ETCH) of Tomadol 23-1
# Experimental: Dose-response evaluations were performed on 1-4 week old adults SJC Strain (S.C. Johnson & Son, Racine, Wis.) German cockroaches, Blattella germanica, L. Insects were individually transferred using a 7″ (18 cm) […] forceps to 100×20 mm polystyrene Petri dishes. The inside edge of the dishes was lightly coated with a layer of (1:3) mineral oil+petroleum jelly to minimize insect escape. Approximately 10 cockroaches were transferred to each dish and then anesthetized with a 15-25 second exposure to CO2. Anesthetized cockroaches were positioned with their ventral side up in the bottom of the Petri dish. A 2 μl drop of test solution was applied to the area between the meso- and methathoracic legs using a Rainen L-10 10 μl pipette. Control cockroaches were treated with a 2 μl drop of the solvent, 100% ethyl alcohol.
# Structure—activity tests used to calculate LT50 values were scored approximately every 30 minutes for the first two hours following treatment followed by approximate hourly readings to hour 8 with a final reading at 24 hours. Cockroaches were scored as either alive (dorsal side up, active movement when abdomen prodded) or moribund/dead (dorsal side up and no movement when abdomen prodded or ventral side up and insect unable to right itself).
Structure (SMILES),LC50 (%) [95% CI],synergy of insecticidal activity by Tomadol 23-1 (reduced the LC50) (in words)
CCOCn1c(-c2ccc(Cl)cc2)c(C#N)c(Br)c1C(F)(F)F [chlorfenapyr],0.4062%,–
CNC(=O)Oc1ccccc1OC(C)C [propoxur],0.0101%,–
CN1COCN(Cc2cnc(Cl)s2)/C1=N\[N+](=O)[O-] [thiamethoxam],0.0038%,–
CC1(C)C(C=C(Cl)Cl)C1C(=O)OC(C#N)c1ccc(F)c(Oc2ccccc2)c1 (centres unmarked) [cyfluthrin],0.0050%,–
O=[N+]([O-])NC1=NCCN1Cc1ccc(Cl)nc1 [imidacloprid],0.0219%,–
COP(=O)(NC(C)=O)SC (centres unmarked) [acephate],0.0051%,did not synergize
CN/C(=N\[N+](=O)[O-])NCc1cnc(Cl)s1 [clothianidin],0.0020%,–
